# Where two headings read alike, the source gives them in different places.
# Tests used:
# [1] = Clinical plasma PK in healthy volunteers after oral dosing (observed); format: in vivo; conditions: male, human; for AUC(0-t): read-out: AUC0-t Observed; for AUC(0-inf): read-out: AUC0-∞ Observed; for MRT inf: read-out: MRT(0-∞) Observed
# Method: The study protocol was approved by the Ethics Committee of Peking Union Medical College Hospital approved (Permission Number: 09103), and the Informed Consent Form was signed by all subjects before the study. PVP formulation of buagafuran was packed into capsules for oral administration. In a study of open-label, randomized, cross-over and dose-ranging design, 12 healthy male Chinese volunteers (aged 22–40 with weighing 55–70 kg) received a single oral dose of buagafuran (30, 60, and 120 mg). Serial blood samples were collected up to 48 h. In a phase I, randomized and multiple oral dose study, 5 healthy male Chinese volunteers (aged 20–31 with weighing 55–73 kg) received once-daily oral dose of 60 mg buagafuran for 7 days. On day 1 and 7, plasma samples were collected at the designed time points. Detailed clinical data was previously reported ([Yang et al., 2011], [2013]).
# Pharmacokinetic parameters were determined with a non-compartmental model using WinNonlin v 6.0 (Pharsight Corporation, Mountain View, CA, United States). The area under the compound concentration versus time curve from time zero to the last time point (AUC0-t) and extrapolated to infinity (AUC0-∞) and the peak plasma concentration (Cmax) were calculated.
# [2] = design: method as in Zhang, 1997; Li et al., 2001; Li, 2010; conditions: human liver microsomes, ref Zhang, 1997, Li et al., 2001, 2010; cited from earlier work
# Caco-2 cells = test: Caco-2 transport study; format: in vitro ADME; design: Caco-2 Papp: unit not given here; conditions: PBPK input parameter; 50 μM
# Method: (§1) Caco-2 Cells from passage 38 were applied to the transport experiments. Cells were seeded on polycarbonate filters (12 mm diameter, pore size 0.4 μm). The cell monolayers were used 21 days post seeding. Buagafuran was dissolved in DMSO. It was further diluted to 50 μM with HBSS. The final buagafuran concentration was 50 μM. For absorptive (AP→BL) permeability test, drug solution (0.4 mL) was added to the apical chamber. For secretive (BL→AP) permeability experiments, drug solution (0.6 mL) was added to the basolateral chamber, then 50 μL samples (n = 3) were withdrawn from receiver chamber at specified times and 50 μL fresh buffer was added in the receiver chamber. The experiments were carried out in triplicate at 4 time points.
# (§2) Transport of buagafuran was tested using a linear model. The regression line was validated by inspection with naked eye and the value of correlation coefficient was R > 0.9. The apparent permeability coefficient (Papp) was calculated by the formula Papp = (ΔQ/Δt)/ACo, where ΔQ/Δt is the transport rate (nmol/s), which remained approximately constant in time, A is the well membrane area (0.6 cm^2), and Co is the initial concentration of buagafuran (μM). The efflux rate (ER) was the ratio of the Papp from the basolateral to apical cells versus the Papp from the apical to basolateral cells. Transport of the tested drug is linear over the incubation times of 30–120 min.
# Caco-2 transport study = format: in vitro ADME; design: Caco-2 Papp: unit not given here; conditions: human, Caco-2 monolayer
# Method: as §1, §2
# [3] = Clearance prediction from incubation with rat liver microsomes; format: in vitro ADME
# Method: Drug disappearance t1/2 value measurements in rat and human microsomes were used to determine the in vitro apparent intrinsic clearance value (CLintapp) of buagafuran acquired using Then CLintapp was converted to in vivo intrinsic clearance (CLint).
# Rat or human liver microsomal incubation (0.5 mg/mL) was carried out at 37°C in a mixture of 0.5 mL in 0.05 M Tris–HCl buffer (pH 7.4). Buagafuran (2 μM) was added to the incubation system. The addition of NADPH (1 mM) initiated the reaction, then the reaction was incubated for 0, 10, 20, 30, 45, and 60 min. The equal volume of acetonitrile containing the IS (10 ng/mL) was added to stop the reaction. The mixtures were centrifuged at 16000 g for 5 min and the supernatants were determined using LC-MS/MS method.
# The natural log (In) of buagafuran concentration versus time was plotted and the slope of the best fit line of was determined by the data (k). This was converted into in vitro t1/2 where t1/2 = In 2/k. CLintapp was calculated by the following equation: […]
# Where M is the microsomal protein concentration in the incubation. CLint by liver was calculated from equation 2:
# (2) CLint=CLint(app)×mgmicrosome/gliver×liverweight(g)/bodyweight(kg)
# Where a value of 45 mg of protein per gram of liver tissue was used for both rat and human, and a liver weight of 40 and 21 g per kg were applied to rat and human, respectively ([Hosea et al., 2009]). […]
# [4] = oral, 60 mg, multiple dosing (60 mg once daily, 7 days)/first dosing
# [5] = oral, 60 mg, multiple dosing (60 mg once daily, 7 days)/last dosing
# [6] = po, 30 mg, oral single dosing 30 mg
# [7] = po, 60 mg, oral single dosing 60 mg
# [8] = po, 120 mg, oral single dosing 120 mg
structure (smiles),measurement,setting,value
CCCCC1=CCC[C@@]2(C)CC[C@@H]3C[C@]12OC3(C)C [buagafuran],Cmax,[1]; [4],27.1 ng/mL
same,AUC(0-t),[1]; [4],99.4 ng·h/mL
same,AUC(0-inf),[1]; [4],113 ng·h/mL
same,MRT inf,[1]; [4],9.94 h
same,Tmax,"[1]; oral, 60 mg, multiple dosing (60 mg once daily, 7 days)/first dosing, read-out: Tmax Observed",2 h
same,Cmax,[1]; [5],32 ng/mL
same,AUC(0-t),[1]; [5],163 ng·h/mL
same,AUC(0-inf),[1]; [5],231 ng·h/mL
same,MRT inf,[1]; [5],20.9 h
same,Tmax,"[1]; oral, 60 mg, multiple dosing (60 mg once daily, 7 days)/last dosing, read-out: Tmax Observed",3 h
same,Cmax,[1]; [6],19.5 ng/mL
same,AUC(0-t),[1]; [6],47.6 ng·h/mL
same,AUC(0-inf),[1]; [6],54.9 ng·h/mL
same,MRT inf,[1]; [6],3.33 h
same,Tmax,"[1]; po, 30 mg, oral single dosing 30 mg, read-out: Tmax Observed",1 h
same,Cmax,[1]; [7],39.8 ng/mL
same,AUC(0-t),[1]; [7],92.4 ng·h/mL
same,AUC(0-inf),[1]; [7],95.4 ng·h/mL
same,MRT inf,[1]; [7],4.87 h
same,Tmax,"[1]; po, 60 mg, oral single dosing 60 mg, read-out: Tmax Observed",1 h
same,Cmax,[1]; [8],81.6 ng/mL
same,AUC(0-t),[1]; [8],246 ng·h/mL
same,AUC(0-inf),[1]; [8],272 ng·h/mL
same,MRT inf,[1]; [8],5.28 h
same,Tmax,"[1]; po, 120 mg, oral single dosing 120 mg, read-out: Tmax Observed",1 h
same,Tmax,"[1]; po, oral 30–120 mg, read-out: time to peak plasma concentration (Tmax)",0.5 to 2 h
same,extraction ratio,[2],about 50%
same,Caco-2 Papp,Caco-2 cells,19.5 × 10^-5
same,Papp A→B at 50 μM,Caco-2 transport study; read-out: apparent permeability coefficient (AP to BL),195 ×10⁻⁶ cm/s
same,Papp B→A at 50 μM,Caco-2 transport study; read-out: apparent permeability coefficient (BL to AP),438 ×10⁻⁶ cm/s
same,CLhep predicted,"[3]; from rat liver microsomes, well-stirred model",28.0 mL/min/kg
same,microsomal CLint at 2 μM,"[3]; pH 7.4, rat liver microsomes 0.5 mg/mL, 2 μM, read-out: in vitro CLintapp",33 µL/min/mg
